Test results from US20240279214A1, “ALPHA4 BETA7 INEGRIN ANTAGONISTS AND USES THEREOF” (XinThera, Inc., priority 2022, published 2024).

Molecular target: T1, a4b7 integrin interaction with MadCAM-1 (Homo sapiens, UniProt P13612+P26010)
T1 construct: capture of a4b7 integrin expressing cells, RPMI8866; endogenous in cells; host or cells: RPMI8866
T1 sequence (P13612 34-1032): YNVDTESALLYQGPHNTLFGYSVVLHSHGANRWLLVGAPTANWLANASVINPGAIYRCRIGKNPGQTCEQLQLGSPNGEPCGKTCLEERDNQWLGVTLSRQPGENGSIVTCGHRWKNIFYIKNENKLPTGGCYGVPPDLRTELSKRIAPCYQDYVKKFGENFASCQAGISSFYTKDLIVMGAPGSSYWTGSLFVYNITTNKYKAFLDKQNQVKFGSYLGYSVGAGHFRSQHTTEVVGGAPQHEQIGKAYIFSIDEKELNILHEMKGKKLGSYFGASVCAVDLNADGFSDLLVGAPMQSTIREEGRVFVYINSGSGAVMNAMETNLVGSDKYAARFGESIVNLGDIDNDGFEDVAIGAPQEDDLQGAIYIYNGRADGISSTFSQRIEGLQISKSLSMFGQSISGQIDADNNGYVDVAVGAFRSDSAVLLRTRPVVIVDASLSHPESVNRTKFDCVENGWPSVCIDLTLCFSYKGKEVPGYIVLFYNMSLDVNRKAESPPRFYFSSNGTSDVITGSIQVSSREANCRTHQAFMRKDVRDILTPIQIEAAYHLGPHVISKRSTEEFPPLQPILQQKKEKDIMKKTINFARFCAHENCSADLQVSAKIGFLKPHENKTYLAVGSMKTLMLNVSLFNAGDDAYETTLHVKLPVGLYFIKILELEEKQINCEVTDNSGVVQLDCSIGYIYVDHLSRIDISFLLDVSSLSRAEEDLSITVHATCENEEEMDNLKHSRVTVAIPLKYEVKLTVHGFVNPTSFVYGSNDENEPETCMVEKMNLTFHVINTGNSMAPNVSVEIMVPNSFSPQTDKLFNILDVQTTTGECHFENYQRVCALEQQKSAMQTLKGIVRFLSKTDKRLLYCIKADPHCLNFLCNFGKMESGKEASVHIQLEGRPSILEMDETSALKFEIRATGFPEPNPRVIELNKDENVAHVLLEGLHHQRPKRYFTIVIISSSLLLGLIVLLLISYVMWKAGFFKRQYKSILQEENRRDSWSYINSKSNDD
T1 sequence (P26010 20-798): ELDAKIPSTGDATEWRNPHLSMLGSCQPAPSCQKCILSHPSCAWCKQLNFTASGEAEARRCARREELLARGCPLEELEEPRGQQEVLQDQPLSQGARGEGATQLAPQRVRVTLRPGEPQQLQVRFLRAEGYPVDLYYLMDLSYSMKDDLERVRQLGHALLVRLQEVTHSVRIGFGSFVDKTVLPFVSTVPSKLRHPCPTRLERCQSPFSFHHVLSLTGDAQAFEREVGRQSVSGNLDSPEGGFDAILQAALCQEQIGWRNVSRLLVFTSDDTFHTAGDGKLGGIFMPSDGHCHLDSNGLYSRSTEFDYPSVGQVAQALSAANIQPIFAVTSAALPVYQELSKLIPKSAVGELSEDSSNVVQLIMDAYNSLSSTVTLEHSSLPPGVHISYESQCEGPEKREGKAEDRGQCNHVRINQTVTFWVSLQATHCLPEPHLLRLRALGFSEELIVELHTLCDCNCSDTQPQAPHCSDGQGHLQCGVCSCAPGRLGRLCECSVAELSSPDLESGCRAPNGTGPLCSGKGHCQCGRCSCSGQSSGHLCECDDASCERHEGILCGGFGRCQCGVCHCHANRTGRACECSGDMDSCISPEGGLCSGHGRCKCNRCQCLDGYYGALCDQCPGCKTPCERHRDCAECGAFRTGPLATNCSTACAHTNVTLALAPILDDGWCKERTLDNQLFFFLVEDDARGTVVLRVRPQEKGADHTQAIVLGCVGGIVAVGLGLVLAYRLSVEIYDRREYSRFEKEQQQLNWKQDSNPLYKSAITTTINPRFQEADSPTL
Assay: a4b7 Cell Capture Assay (RPMI8866 cells on MAdCAM-1 Fc coated plates)
Format: cell-based
Details: 50% human serum, 1 mM MgCl2, 1 hour incubation, CellTiter-Glo luminescence, read-out: a4B7 cell capture assay RMPI8866-MadCAM EC50
Outline: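 RPMI8866 cells (1.0×10^6 cells/mL) in 1 mM MgCl2, 25 mM HEPES, 50% human serum were added to plates coated with human MAdCAM-1–IgG1 Fc (1.0 μg/mL) and exposed to compound (9-point, 0.08–1000 nM, 0.1% DMSO) for 1 h at 37 °C. Bound cells were read by CellTiter-Glo luminescence. IC50 came from 4-parameter fit of normalized % inhibition.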

EC50 [nM] | SMILES
160 | Cc1cc2cc(c1F)[C@H](CC(=O)O)NC(=O)[C@@H](n1ccc(C(F)(F)F)cc1=O)c1cc(ccc1F)COc1cccc(C)c1-2 (single isomer, unassigned) [Example 44]
1.8 | Cc1cc2cc(c1F)[C@H](CC(=O)O)NC(=O)[C@@H](n1cc(CCN3CC(F)(F)C3)c(C(F)(F)F)cc1=O)c1cc(ccc1F)Oc1cccc(C)c1-2 (single isomer, unassigned) [Example 45]
42 | Cc1cc2cc(c1F)[C@H](CC(=O)O)NC(=O)[C@@H](n1cc(CCN3CC(F)C3)c(C(F)(F)F)cc1=O)c1cc(ccc1F)COc1cc(Cl)cc(C)c1-2 (single isomer, unassigned) [Example 47]
11 | Cc1cc2cc(c1F)[C@H](CC(=O)O)NC(=O)[C@@H](n1cc(CCN3CC(F)(F)C3)c(C(F)(F)F)cc1=O)c1cc(ccc1F)COc1cccc(C)c1-2 (single isomer, unassigned) [Example 53]
7 | Cc1cc2cc(c1F)[C@H](CC(=O)O)NC(=O)[C@@H](n1cc(CCN3CC(F)C3)c(C(F)(F)F)cc1=O)c1cc(ccc1Cl)COc1cccc(C)c1-2 (single isomer, unassigned) [Example 58]
42 | Cc1cc2cc(c1F)[C@H](CC(=O)O)NC(=O)[C@@H](n1cc(CCN3CC(F)C3)c(C(F)(F)F)cc1=O)c1cc(ccc1F)COc1ccc(F)c(C)c1-2 (single isomer, unassigned) [Example 61]
33 | Cc1cc2cc(c1F)[C@H](CC(=O)O)NC(=O)[C@@H](n1cc(CCN3CCC(F)(F)CC3)c(C(F)(F)F)cc1=O)c1cc(ccc1F)COc1cccc(C)c1-2 (single isomer, unassigned) [Example 62]
190 | Cc1cccc2c1-c1cc(c(F)c(C(F)(F)F)c1)[C@H](CC(=O)O)NC(=O)[C@@H](n1c(=O)c3ccncc3n(C)c1=O)c1cc(ccc1F)CO2 (single isomer, unassigned) [Example 67]
0.38 | Cc1cc2cc(c1F)[C@H](CC(=O)O)NC(=O)[C@@H](n1c(=O)c3ccncc3n(C)c1=O)c1cc(ccc1F)Oc1cccc(C)c1-2 (single isomer, unassigned) [Example 69]
20 | Cc1ccc2cc1[C@H](n1cc(CCN3CC(F)C3)c(C(F)(F)F)cc1=O)C(=O)N[C@@H](CC(=O)O)c1cc(cc(C)c1F)-c1c(C)cccc1OC2 (single isomer, unassigned) [Example 74]
> 100 | Cc1cccc2c1-c1cc(c(C)s1)[C@H](CC(=O)O)NC(=O)[C@@H](n1cc(CCN3CC(F)C3)c(C(F)(F)F)cc1=O)c1cc(ccc1F)CO2 (single isomer, unassigned) [Example 75]
39 | Cc1cc2cc(c1F)[C@H](CC(=O)O)NC(=O)[C@@H](n1ccc(C(F)(F)F)c(Cl)c1=O)c1cc(ccc1F)Oc1cccc(C)c1-2 (single isomer, unassigned) [Example 76]
360 | Cc1cccc2c1-c1cc(C3CC3)c(F)c(c1)[C@H](CC(=O)O)NC(=O)[C@@H](n1ccc(C(F)(F)F)cc1=O)c1cc(ccc1F)CO2 (single isomer, unassigned) [Example 78]

The remaining lines, values behind:

SMILES | EC50 [nM]
Cc1cc2cc(c1F)[C@H](CC(=O)O)NC(=O)[C@@H](n1cc(CCN3CC(F)C3)c(C(F)(F)F)cc1=O)c1cc(ccc1F)Oc1cc(C#N)cc(C)c1-2 (single isomer, unassigned) [Example 46] | 1.6
Cc1cc2cc(c1F)[C@H](CC(=O)O)NC(=O)[C@@H](n1cc(CCN3CC(F)C3)c(C(F)(F)F)cc1=O)c1cc(ccc1F)Oc1cc(C(C)(C)O)cc(C)c1-2 (single isomer, unassigned) [Example 48] | 0.5
Cc1cc2cc(c1F)[C@H](CC(=O)O)NC(=O)[C@@H](n1cc(CCN3CC(F)C3)c(C(F)(F)F)cc1=O)c1cc(cc(Cl)c1F)COc1cccc(C)c1-2 (single isomer, unassigned) [Example 49] | 4.9
Cc1cc2cc(c1F)[C@H](CC(=O)O)NC(=O)[C@@H](n1cc(CCN3CC(F)C3)c(C(F)(F)F)cc1=O)c1cc(ccc1F)COc1ccc(F)cc1-2 (single isomer, unassigned) [Example 50] | > 100
Cc1cc2cc(c1F)[C@H](CC(=O)O)NC(=O)[C@@H](n1cc(CCN3CC(F)C3)c(C(F)(F)F)cc1=O)c1cc(ccc1F)Oc1ccc(F)cc1-2 (single isomer, unassigned) [Example 52] | 180
Cc1cc2cc(c1F)[C@H](CC(=O)O)NC(=O)[C@@H](n1cc(CCN3CC(F)C3)c(C(F)(F)F)cc1=O)c1cc(ccc1F)COc1cc(C#N)cc(C)c1-2 (single isomer, unassigned) [Example 54] | 27
Cc1cc2cc(c1F)[C@H](CC(=O)O)NC(=O)[C@@H](n1cc(CCN3CC(F)C3)c(C(F)(F)F)cc1=O)c1cc(ccc1F)Oc1cc(C3COC3)cc(C)c1-2 (single isomer, unassigned) [Example 57] | 2.6
Cc1cc2cc(c1F)[C@H](CC(=O)O)NC(=O)[C@@H](n1cc(CCN3CC(F)C3)c(C(F)(F)F)cc1=O)c1cc(ccc1F)Oc1nn(CC3CC3)cc1-2 (single isomer, unassigned) [Example 60] | 380
Cc1cc2cc(c1F)[C@H](CC(=O)O)NC(=O)[C@@H](n1cc(CCN3CCC(F)(F)CC3)c(C(F)(F)F)cc1=O)c1cc(ccc1F)Oc1cccc(C)c1-2 (single isomer, unassigned) [Example 63] | 10
Cc1cc2cc(c1F)[C@H](CC(=O)O)NC(=O)[C@@H](n1cc(CCN3CC(F)C3)c(C(F)(F)F)cc1=O)c1cc(ccc1F)Oc1cc(C(F)(F)F)cc(C)c1-2 (single isomer, unassigned) [Example 64] | 6.4
Cc1cc2cc(c1F)[C@H](CC(=O)O)NC(=O)[C@@H](n1cc(CCN3CC(F)C3)cc(C)c1=O)c1cc(ccc1F)Oc1cccc(C)c1-2 (single isomer, unassigned) [Example 66] | 0.4
Cc1cc2cc(c1F)[C@H](CC(=O)O)NC(=O)[C@@H](n1cc(CCN3CC(F)C3)c(C(F)(F)F)cc1=O)c1cc(ccc1F)COc1nn(CC3CC3)cc1-2 (single isomer, unassigned) [Example 70] | > 100
Cc1ccc2cc1[C@H](n1cc(CCN3CC(F)C3)c(C(F)(F)F)cc1=O)C(=O)N[C@@H](CC(=O)O)c1cc(cc(C)c1F)-c1c(C)cccc1O2 (single isomer, unassigned) [Example 71] | 3.5
Cc1cccc2c1-c1cc(c(C)s1)[C@H](CC(=O)O)NC(=O)[C@@H](n1cc(CCN3CC(F)C3)c(C(F)(F)F)cc1=O)c1cc(ccc1F)O2 (single isomer, unassigned) [Example 72] | 16
Cc1cccc2c1-c1cc(C3CC3)c(F)c(c1)[C@H](CC(=O)O)NC(=O)[C@@H](n1ccc(C(F)(F)F)cc1=O)c1cc(ccc1F)O2 (single isomer, unassigned) [Example 73] | 27
Cc1cc2c(F)c(c1F)[C@H](CC(=O)O)NC(=O)[C@@H](n1cc(CCN3CC(F)C3)c(C(F)(F)F)cc1=O)c1cc(ccc1F)Oc1cccc(C)c1-2 (single isomer, unassigned) [Example 77] | 15
COc1cc(C)c2c(c1)Oc1ccc(F)c(c1)[C@H](n1ccc(C(F)(F)F)cc1=O)C(=O)N[C@@H](CC(=O)O)c1cc-2cc(C)c1F (single isomer, unassigned) [Example 80] | 58
